Entries after “also recorded” stand apart in the source; their conditions may differ. Like-named read-outs stand apart in the source and are kept apart here.
Columns and labels:
[1] = system: renal ischemia-reperfusion injury; experiment: Renal function (creatinine, BUN) in rat model of renal ischemia-reperfusion injury; type: in vivo; conditions: for effect on creatinine: FIG. 7B; for renal function loss / acute kidney injury: P≦0.05; for plasma creatinine: not significant (P>0.05), FIG. 5B; for creatinine levels: FIG. 1B
Method: This example illustrates the effect of multiple dosing strategies of AMD3465 in an in vivo rat model of renal ischemia-reperfusion injury in which the renal artery and vein of both kidneys were clamped for 45 minutes followed by removal of the clamps and reperfusion with blood. […] Group 1 follows this dosing regimen as illustrated in FIG. 1A. FIGS. 1B and 1C show creatinine and BUN levels in mg/dL of Group 1 subjects compared to subjects following different dosing strategies shown in FIG. 1A using 10 mg/kg. Also shown in FIG. 1A—Group 2 was dosed at −15 min and +2 hrs and +4 hrs and Group 3 at time 0 and +2 hrs.
FIG. 5A diagrams the dosing regimen timeline for groups 1 and 2. FIGS. 5B, 5C and 5D show the creatine (serum or plasma) and blood urea nitrogen levels of the AMD treated groups, vehicle treated and normal subjects. Dosing was carried out with two 1 mg/kg administrations (Group 1) or 5 mg/kg in a single dose (Group 2). […] FIG. 5C and FIG. 5D illustrate individual data points of each rat for plasma creatinine and blood urea nitrogen, respectively.
FIG. 6A illustrates the dosing regimen.
FIG. 7A illustrates the dosing regimen. Group 1 was administered 0.01 mg/kg both 15 minutes before and 3 hours after ischemia; Group 2 was administered 0.1 mg/kg at 15 minutes before.

[2] = system: white blood cells; conditions: normal rats; single dose 1 mg/kg at time 0 versus 0.1 mg/kg twice (time 0 and 3 hrs later); FIG. 9
[3] = system: renal ischemia-reperfusion injury; experiment: Kidney histology: injury score (hematoxylin/eosin) and TUNEL score after renal ischemia-reperfusion; type: in vivo, rat
Method: Rats were dosed as described for Group 1 rats in FIG. 1A. […] FIGS. 2C and 2D show graphs of the Injury and TUNEL score, respectively. Injury was evaluated by scoring hematoxylin and eosin stained kidney sections on a scale of 1 to 4 for proteinaceous cast formation, cell exfoliation, vascular congestion and loss of tubular architecture. TUNEL staining was carried out on kidney sections to identify apoptotic cells that were then quantified by Metamorph analysis.
(§1) Data for FIGS. 8A, 8B and 8C were generated as described for FIGS. 2C, 2D and 3C, respectively.

[4] = system: myeloperoxidase activity; conditions: both regimens of FIG. 6A; FIG. 8D
Description: as §1

[5] = system: renal ischemia-reperfusion injury; experiment: Microvascular permeability: rat IgG immunostaining of kidney and serum vWF ELISA after renal ischemia-reperfusion; type: in vivo
Description: Leakage of plasma proteins and secretion of von Willebrand Factor (vWF) are two indicators of the loss of microvascular integrity. FIGS. 3A and 3B are images of kidney tissue harvested 24 hrs after renal ischemia-reperfusion from subjects treated with the vehicle and AMD3465, respectively; tissue sections were immunostained with an antibody that recognizes rat immunoglobulin (IgG) and immunoreactivity quantified by Metamorph analysis illustrated in FIG. 3C. […] Renal ischemia-reperfusion rats that received AMD3465 represent Group 1 rats in FIG. 1A.
as §1

[6] = rat, in vivo
Method: FIG. 4A provides body weight data of subjects administered vehicle, and subjects in Group 1 and Group 2 (Groups described in FIG. 1A). […] FIG. 4B gives white blood cell (WBC) counts at 24 hours of Group 1 and 2 subjects, subjects administered vehicle and normal subjects administered AMD3465.

[7] = system: IL-6/IL-10 mRNA expression; conditions: Group 1 dosing

## c1cc(CN2CCCNCCNCCCNCC2)ccc1CN1CCCNCCNCCCNCC1 [AMD3100, 1,1′-[1,4-phenylene-bis(methylene)]-bis-1,4,8,11-tetraazacyclotetradecane]
[1]; 0.01 mg/kg both 15 minutes before and 3 hours after ischemia (Group 1, FIG. 7A)
  effect on creatinine: less positive results
[1]; 0.1 mg/kg 15 minutes prior to ischemia and 3 hrs later (Group 1, FIG. 6A)
  renal function loss / acute kidney injury: therapeutically effective
[1]; 0.1 mg/kg at 15 minutes before ischemia (Group 2, FIG. 7A)
  effect on creatinine: comparable to that shown in FIG. 6B
[1]; 1 mg/kg only at 15 minutes prior to ischemia (Group 2, FIG. 6A)
  renal function loss / acute kidney injury: therapeutically effective
[1]; FIG. 5C, dosing of FIG. 5A
  rats that demonstrated lower plasma creatinine (individual data points): five
[1]; regimens of FIG. 6A (0.1 mg/kg twice or 1 mg/kg once), FIG. 6B
  plasma creatinine levels: reduction
[1]; regimens of FIG. 6A (0.1 mg/kg twice or 1 mg/kg once), FIG. 6C
  BUN levels: reduction
[1]; regimens of FIG. 7A (0.01 mg/kg twice or 0.1 mg/kg once), FIG. 7C compared with FIG. 6C
  plasma BUN: only slightly less effective
[1]; single dose of 5 mg/kg (Group 2, FIG. 5A)
  plasma creatinine: decrease
[1]; two doses of 1 mg/kg (Group 1, FIG. 5A)
  plasma creatinine: decrease
[2]
  mobilization of white blood cells: Comparable results
[3]; regimen of FIG. 6A (0.1 mg/kg twice or 1.0 mg/kg once), FIG. 8B
  TUNEL score: significant effect
[3]; regimen of FIG. 6A (0.1 mg/kg twice or 1.0 mg/kg once), compared to vehicle, FIG. 8A
  injury score: lowered significantly
[4]
  myeloperoxidase activity, a measure of neutrophilic infiltration into the kidney tissue: lowered myeloperoxidase activity
[5]; regimen of FIG. 6A (0.1 mg/kg twice or 1.0 mg/kg once), FIG. 8C
  luminal IgG score: significant effect

## c1ccc(CNCc2ccc(CN3CCCNCCNCCCNCC3)cc2)nc1 [AMD3465, N-[1,4,8,11-tetraazacyclotetradecanyl-1,4-phenylene-bis-(methylene)]-2-aminomethyl-pyridine]
[1]; 10 mg/kg 15 min prior to ischemia and 2 hrs later (Group 1), 24 hrs after reperfusion
  loss of renal function based on levels of serum creatine and serum blood urea nitrogen (BUN): ameliorated the loss of renal function
[1]; Group 1: 10 mg/kg at -15 min and +2 hrs, 24 hrs after reperfusion, P<0.05
  creatinine levels: closest to normal
[1]; Group 1: 10 mg/kg at -15 min and +2 hrs, 24 hrs after reperfusion, FIG. 1C, P<0.05
  BUN levels: closest to normal
[1]; Group 2: 10 mg/kg at -15 min, +2 hrs and +4 hrs, 24 hrs after reperfusion
  creatinine levels: closest to normal
[1]; Group 2: 10 mg/kg at -15 min, +2 hrs and +4 hrs, 24 hrs after reperfusion, FIG. 1C
  BUN levels: closest to normal
[3]; Group 1 dosing (10 mg/kg -15 min, +2 hrs), 24 hr post-reperfusion, vs vehicle, 10 mg/kg
  structural integrity of the kidney: maintained structural integrity; also recorded: remained intact
[3]; Group 1 dosing (10 mg/kg -15 min, +2 hrs), 24 hr post-reperfusion, vs vehicle, FIG. 2C, 10 mg/kg
  renal injury (Injury score): decreasing renal injury; also recorded: significantly reduced
[3]; Group 1 dosing (10 mg/kg -15 min, +2 hrs), 24 hr post-reperfusion, vs vehicle, FIG. 2D, 10 mg/kg
  cell death (TUNEL score): decreasing; also recorded: significantly reduced
[5]; Group 1 dosing, kidney harvested 24 hrs after renal ischemia-reperfusion, vs vehicle, FIG. 3C
  frequency of serum proteins measured by rat IgG in the renal tubular lumen: less
[5]; Group 1 dosing, vs vehicle, FIG. 3D
  circulating levels of the cleaved form of von Willebrand factor (serum, ELISA): lower
[6]
  body weight: lost less body weight
  tolerability: well tolerated
  white blood cell (WBC) counts: comparable
[7]; 5 hrs post-reperfusion, compared to vehicle
  ratio of IL-6/IL-10 mRNA expression: drops more drastically
[7]; 24 hrs post-reperfusion
  ratio of IL-6/IL-10 mRNA expression: has dropped

From patent publication US20110245265A1, “CXCR4 ANTAGONISTS FOR KIDNEY INJURY” (GENZYME CORPORATION, priority 2008, published 2011)
